In ChEMBL document CHEMBL3430912, “GSK Tres Cantos Anti-Kinetoplastid Screening (TCAKS) Data”:

Assays:
[1] = tested on: Trypanosoma cruzi; assay: GSK_TCAKS: pIC50 Trypanosoma cruzi Imaging: Amastigotes/Cell. […] Cells were then washed once with PBS before infection. T. cruzi trypomastigotes, collected at days 5 to 8 after infection from LLC-MK2 parasite infected cultures, were allowed to swim out for 4h at 37C from a centrifuged pellet (2,500 rpm/10 min/room temperature). Trypomastigotes were then collected and counted in a CASY Cell Counter. Trypomastigotes, in supplemented DMEM, were added to H9c2 cultures in a multiplicity of infection of 1 and incubated for 18 h. Cells were washed once with PBS before incubation of the infected H9c2 monolayer with trypsin (Life-Technologies) to detach cells from the flask. Cells were counted in a CASY Cell Counter using a 150 um capillary and their density set at 5 * 10^4 cells per mL in supplemented assay DMEM. Infected H9c2 were dispensed into 384-well poly-lysine coated assay plates at 50uL per well using a Multidrop Combi dispenser. After seeding them, the plates were incubated at 37C, 5% CO2 for 72h. Cultures were then fixed and stained by addition of 50 uL of a solution containing 8% formaldehyde and 4 uM DRAQ5 DNA dye (BioStatus, UK) per well. […] Five images were collected per well for reliable statistical analysis. Automated image analysis was performed with a script developed on Acapella High Content Imaging and Analysis Software (PerkinElmer). Output: number of amastigotes per cell as infection level measurement.; type: functional, organism-based, Rattus norvegicus; settings: H9c2, 4 h
[2] = tested on: Trypanosoma brucei brucei; assay: GSK_TCAKS: pIC50 Trypanosoma brucei viability assay using luminiscence. Assay plates (1536-well) were prepared. T. brucei cultures were harvested and counted in a CASY cell counter. A parasite suspension was prepared at a final concentration of 5 * 10^4 cells/mL in complete HMI9 medium and 6uL was dispensed to all wells containing compounds using a Multidrop Combi dispenser. 6uL of HMI9 media with 0.4% DMSO were dispensed to control columns. Plates were incubated for 24 h at 37C, 5% CO2 then tempered for 10 min at room temperature. ATP content was quantified by adding 4 uL of CellTiter-Glo Reagent (Promega) according to the manufacturer's instructions. Luminescence was measured using a ViewLux.; type: functional, organism-based; settings: Lister 427, CASY
[3] = tested on: Leishmania donovani; assay: (§1) GSK_TCAKS: pIC50 Leishmania donovani Imaging: Amastigotes/Macrophages. Assay plates (384-well) were prepared by adding 250nL of compound to each well. For single shot assay, the final compound concentration was 5 uM. […] Automated image analysis was performed with a script developed on Acapella High Content Imaging and Analysis Software (PerkinElmer). Output: Average number of amastigotes per macrophage cell were reported for each well.; type: functional, organism-based, Homo sapiens; settings: THP-1
[4] = tested on: Trypanosoma cruzi; assay: GSK_TCAKS: pIC50 Trypanosoma cruzi viability assay using beta-GAL activity. This assay was run at single shot at 5uM compound concentration per well. The biological reagents consisted of NIH-3T3 host cells and trypomastigotes parasitic cells; both cell types were set to a 3.3 * 10^5 cells/mL dilution in assay DMEM by means of a CASY cell counter device using a 60um capillary. 6 uL of the mixture were dispensed per well (about 1 * 10^3 host-cells and 1 * 10^3 parasites) with a Multidrop Combi dispenser. […] In all wells, the percentage of DMSO never exceeded 0.5%. Plates incubated for four days at 37C, 5% CO2. The substrate used for the assay fluorescence intensity (FLINT) readout was resorufin-beta-D-galactopiranoside (Sigma-Aldrich) at 5uM per well. It was diluted in PBS supplemented with the soft detergent Igepal (Fluka).; type: functional, organism-based, Mus musculus; settings: Tulahuen, NIH3T3
[5] = tested on: Trypanosoma cruzi; assay: (§2) GSK_TCAKS: pIC50 Trypanosoma cruzi Imaging: Infected Cells. […] Cells were then washed once with PBS before infection. T. cruzi trypomastigotes, collected at days 5 to 8 after infection from LLC-MK2 parasite infected cultures, were allowed to swim out for 4h at 37C from a centrifuged pellet (2,500 rpm/10 min/room temperature). Trypomastigotes were then collected and counted in a CASY Cell Counter. Trypomastigotes, in supplemented DMEM, were added to H9c2 cultures in a multiplicity of infection of 1 and incubated for 18 h. Cells were washed once with PBS before incubation of the infected H9c2 monolayer with trypsin (Life-Technologies) to detach cells from the flask. Cells were counted in a CASY Cell Counter using a 150 um capillary and their density set at 5 * 10^4 cells per mL in supplemented assay DMEM. Infected H9c2 were dispensed into 384-well poly-lysine coated assay plates at 50uL per well using a Multidrop Combi dispenser. After seeding them, the plates were incubated at 37C, 5% CO2 for 72h. Cultures were then fixed and stained by addition of 50 uL of a solution containing 8% formaldehyde and 4 uM DRAQ5 DNA dye (BioStatus, UK) per well. […] Five images were collected per well for reliable statistical analysis. Automated image analysis was performed with a script developed on Acapella High Content Imaging and Analysis Software (PerkinElmer). Output: percentage of infected cells per well as a second infection marker.; type: functional, organism-based, Rattus norvegicus; settings: H9c2, 4 h
[6] = tested on: Trypanosoma cruzi; assay: as §2, with “H2C9” for “Trypanosoma cruzi”, “H9c2 Host Cardiomyocytes.” for “Infected Cells.”, “Number” for “percentage”, “H9c2 Host Cardiomyocytes nuclei to determine drug-related cytotoxicity.” for “infected cells per well as a second infection marker.”; type: functional, organism-based, Rattus norvegicus; settings: H9c2, 4 h
[7] = GSK_TCAKS: pIC50 HepG2 human cell line viability assay using luminiscence. […] Seeding density was checked to ensure that new mono-layers were not more than 50% confluent at the time of harvesting. Cell suspension was added to 500 mL of the same medium at a final density of 1.2 * 10^5 cells/mL. This cell suspension was dispensed (25 uL, 3000 cells per well) into 384-well clear-bottom plates using a Multidrop Combi dispenser. Prior to addition of the cell suspension, the screening compounds (250 nL) were pre-dispensed into the plates with an Echo liquid handler. Plates were incubated for 48 h at 37C, 5% CO2. After incubation, plates equilibrated at room temperature for 30 min before proceeding to develop the luminescent signal. The signal developer, CellTiter-Glo Reagent, was allowed to equilibrate at room temperature for 30 min and added to the plates (25uL per well) using a Multidrop Combi dispenser. Plates were left for 10 min at room temperature for stabilization and then read using a ViewLux.; type: toxicity, cell-based
[8] = tested on: Leishmania donovani; assay: GSK_TCAKS: pIC50 Leishmania donovani viability assay using fluorescence intensity. Assay plates (1536-well) were prepared by adding 30nL per well of compound. For single shot assay, the final compound concentration was 5uM. […] Briefly, eGFP LdBOB axenic amastigotes were harvested, fixed and counted in a CASY cell counter (Roche-Applied Science). A final concentration of 1.5 * 10^5 cells per well were prepared in amastigote media containing 500 U/mL penicillin/streptomycin (Invitrogen) and 6uL was dispensed to each experimental well using a Multidrop Combi dispenser (Thermo Scientific). 6uL of assay media was dispensed to control columns used as reference for 100% compound response. Following incubation for 72 h at 37C, 5% CO2, 2 uL of resazurin was added to each well at a final concentration of 0.5 mM in phosphate buffered saline (PBS) with IGEPAL (Sigma-Aldrich), 0.05% (v/v).; type: functional, organism-based
[9] = tested on: Leishmania donovani; assay: as §1, with “Infected Macrophages.” for “Amastigotes/Macrophages.”, “Percent” for “Average number”, “infected” for “amastigotes per”, “cells” for “cell”; type: functional, organism-based, Homo sapiens; settings: THP-1
[10] = tested on: Leishmania donovani; assay: as §1, with “THP-1 Host Macrophages.” for “Amastigotes/Macrophages.”, “THP-1” for “Average number of amastigotes per macrophage”, “cell count” for “cell”; type: functional, organism-based, Homo sapiens
[11] = tested on: Trypanosoma brucei brucei; assay: GSK_TCAKS: pIC50 Trypanosoma brucei viability assay using fluorescence intensity. Assay plates (1536-well) were prepared by dispensing 25nL of compound solution per well using an Echo acoustic dispenser (Labcyte).; type: functional, organism-based; settings: Lister 427, 2 h
[12] = molecular target: Sterol 14-alpha demethylase (Trypanosoma cruzi (strain CL Brener), UniProt Q7Z1V1); assay: GSK_TCAKS: pIC50 CYP51 from Trypanosoma cruzi.; type: functional
Chain of Sterol 14-alpha demethylase (Q7Z1V1 whole entry): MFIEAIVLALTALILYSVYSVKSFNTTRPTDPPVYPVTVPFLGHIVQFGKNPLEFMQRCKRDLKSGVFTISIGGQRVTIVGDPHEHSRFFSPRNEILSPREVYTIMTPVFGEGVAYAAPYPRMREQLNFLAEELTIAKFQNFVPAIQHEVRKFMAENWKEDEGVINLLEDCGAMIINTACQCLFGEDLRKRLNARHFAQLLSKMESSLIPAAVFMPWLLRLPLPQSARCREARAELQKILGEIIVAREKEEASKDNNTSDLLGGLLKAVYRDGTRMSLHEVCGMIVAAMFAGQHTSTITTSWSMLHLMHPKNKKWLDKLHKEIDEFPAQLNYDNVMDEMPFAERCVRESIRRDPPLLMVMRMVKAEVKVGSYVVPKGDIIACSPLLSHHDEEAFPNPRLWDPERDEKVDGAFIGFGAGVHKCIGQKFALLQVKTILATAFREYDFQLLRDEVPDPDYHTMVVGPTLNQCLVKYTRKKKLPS

Compound	IC50 [1] [nM]	IC50 [2] [nM]	IC50 [3] [nM]	IC50 [4] [nM]	IC50 [5] [nM]	IC50 [6] [nM]	IC50 at 48 h [7] [nM]	IC50 [8] [nM]	IC50 [9] [nM]	IC50 [10] [nM]	IC50 [11] [nM]	IC50 [12] [nM]
Cc1ncsc1CNc1cnc(-c2ccc3c(c2)OCCO3)c(-c2cnn(C)c2)c1	20000	200	12600	12600	39800	> 50100	> 100000	25100	15800	15800	126	7940
Cc1cc(Nc2cc(C3CC3)[nH]n2)nc(N2CCCC2)n1	79.4	63.1	50.1	79.4	100	251	31600	794	158	126	50.1	> 100000
Cc1cc(Nc2cc(C3CC3)[nH]n2)nc(N2CCC[C@H]2C(N)=O)n1	20	63.1	79.4	126	63.1	126	> 100000	631	200	126	12.6	> 100000
CS(=O)(=O)N1CCC(Nc2ncc(Br)c(Nc3cccc(F)c3C(N)=O)n2)CC1	398	15.8	794	316	1000	158	> 100000	100	1580	1000	10	> 100000
NC(=O)c1cc(F)ccc1Nc1nc(N[C@H]2CC[C@H](O)CC2)ncc1Br	794	316	631	2510	2000	501	50100	1580	794	398	79.4	10000
O=C(c1cccc(Nc2ncc(-c3ccc4c(c3)OCO4)cn2)c1)N1CCSC1	200	> 39800	1000	2510	251	1000	10000	1260	2000	12600	12600	15800
NC(=O)c1cc(F)ccc1Nc1nc(N[C@H]2CC[C@H](O)CC2)ncc1Cl	1580	631	794	3980	5010	1580	> 100000	3160	1260	631	158	31600
COc1ccc(Nc2nc(N[C@H]3CC[C@H](O)CC3)ncc2Br)c(C(N)=O)c1	2000	251	631	3980	3160	794	> 100000	3160	1000	398	100	12600
COc1ccc(OC)c(S(=O)(=O)N(Cc2c(F)cccc2F)[C@@H]2CCN(C#N)C2)c1	6310	794	20000	6310	12600	15800	79400	15800	25100	20000	631	> 100000
COc1ccc2ncc(=O)n(CCN3CC[C@H](NCc4ncc(Cl)c5[nH]ncc45)[C@H](O)C3)c2n1	1580	501	> 50100	3980	3160	> 50100	> 100000	> 50100	> 50100	> 50100	316	> 100000
NC(=O)c1ncccc1Nc1nc(N[C@H]2CC[C@H](O)CC2)ncc1Br	501	631	631	1580	2000	631	> 100000	1260	1260	398	316	> 100000
CCc1cc(C(=O)Nc2nccn2-c2ccccc2)cs1	3160	3980	5010	3160	5010	20000	> 100000	6310	12600	31600	3160	> 100000
CC(C)c1cc(Nc2cc(Cc3ccccc3)nc(N[C@H]3CC[C@H](O)CC3)n2)n[nH]1	31.6	100	39.8	79.4	79.4	6.31	31600	3160	63.1	20	79.4	20000
CS(=O)(=O)N[C@H]1CC[C@H](Nc2ncc(Br)c(Nc3ccccc3C(N)=O)n2)CC1	2000	79.4	794	7940	5010	501	> 100000	1000	2000	501	158	> 100000
O=C1NCc2cccc(Nc3nc(N[C@H]4CC[C@H](O)CC4)ncc3Br)c21	398	126	126	631	1000	100	> 100000	794	158	100	63.1	> 100000
NS(=O)(=O)c1ccc(Nc2ncc3cccc(OC4CCNCC4)c3n2)cc1	20	316	15800	1780	50.1	631	> 100000	39800	20000	1000	200	> 100000
COc1ccc2ncc(=O)n(CCN3CCC(NCc4ccc(-c5cccs5)cc4)CC3)c2n1	158	6310	1260	2000	1580	7940	12600	1580	3160	10000	3160	25100
